Laboratory results taken from patent US12178825B2, “Method and compositions for forming a copper-containing complex and uses thereof” (COLD SPRING HARBOR LABORATORY, priority 2017, dated 2024).
“Also recorded” adds a separate entry of the source.

Experiments:
[1] = test system: fibroblasts derived from Wilson's disease patients; assay: Copper-induced toxicity in Wilson's disease patient-derived fibroblasts; assay type: cell-based
Protocol: HepG2 cells purchased from ATCC were cultured in RPMI media containing 10% FBS, 5% CO2 at 37 C. Control (AG09319) and Wilson's disease patient-derived fibroblasts (GM00032, GM00033, GM05257, GM12158, GM05798 and GM11778) were obtained from Coriell Biorepository and cultured in DMEM, 10% FBS, 5% CO2 at 37° C.
For cell survival assays, 10,000 cells were seeded in a 96 well plate and cultured until fully confluent (90%). To these cells, ATP7B siRNAs or scrambled siRNA (negative control) purchased from Qiagen and Santa Cruz Biotechnology were transfected. Lipofectamine RNAiMAX reagent (Thermofischer) and siRNAs were diluted into a final volume of 100 μl in Opti-MEM (Gibco). The mixture was incubated at room temperature for 30 min, following which 800 μl of Opti-MEM was added to the mixture. The above transfection solution was overlaid onto cells at a final concentration of 5 nM siRNA. Transfection of HepG2 cells with scrambled siRNA served as negative control. Twelve hours after the transfection, complete media was added to each well. Following which, knockdown efficiency was checked (24 hours later) and cells were exposed to varying concentration of copper (0-1 mM) for 12 h and cell viability was determined using the MTT assay as previously described (37). […]

[2] = test system: triple-negative breast cancer (TNBC) cell lines; assay: MTT cell survival, triple-negative breast cancer cell lines; assay type: cell-based
Protocol: (§1) The MTT assay was used to evaluate cell survival in the absence and presence of different compounds. The thiazolyl blue tetrazolium bromide (MTT) was dissolved in phosphate buffered saline (PBS) at a concentration of 5 mg/ml, filtered, and stored at 4° C. About 10,000 cells were seeded into a 96-well plate and cultured in growth medium containing serum. After 24 hours, cells were treated with the indicated concentrations of DPM-1001 or DPM-1003 (0-100 uM) for 2 hrs. Following which 20 μl MTT was added into each well. An ELISA plate reader (Biotek, Winooski, Vermont, USA) was used to measure the optical density at 490 nm.

TX mice = assay: Tissue and fecal copper levels (ICP-MS, rhodanine staining); assay type: in vivo, mouse
Protocol: C3He-Atp7b^tx-j were obtained from the Jackson laboratory. All animal experiments were performed according to protocols approved by the Institutional Animal Use and Care Committee of Cold Spring Harbor laboratory. Mice were injected intraperitoneally (i.p.) with vehicle, or administered DPM-1001 intraperitoneally or orally at 5 mg/kg once every third day, for over a year. At the end of the study animals were euthanized and tissue samples were removed for biochemical studies.
Tissue samples from wild-type or TX mice treated with saline, DPM-1001 or tetrathiomolybdate was washed three times with PBS containing 1 mM EDTA (to remove nonspecifically bound copper). Then, 215 μl of concentrated nitric acid (BDH Aristar Ultra) was added to each sample and incubated overnight. Samples were boiled at 95° C. for 1 h. and approximately 150 μl of each sample was further diluted in 2 ml 2% nitric acid (made freshly from concentrated nitric acid and Milli-Q water) Samples were analyzed on a Thermo Fisher iCAP Qc ICP mass spectrometer in kinetic energy discrimination (KED) mode against a calibration curve of known copper and phosphorus concentrations, with Ga (20 μg/l, Inorganic Ventures) as an internal standard, Each experiment was carried out twice and each condition was repeated in at least triplicate.
Liver tissues from wild-type and TX mice from untreated and DPM-1001-treated mice were sectioned and stained with H&E or rhodanine. Whole-slide, digitized images of H&E-stained tissue were captured using the Aperio ScanScope XT automated scanning system (Vista, CA). Image J software was used to quantitate rhodanine staining.

PTP1B1-394 = biological target: T1, PTP1B1-394 (Homo sapiens, UniProt P18031); assay: Gel filtration for aggregation of PTP1B; details: gel filtration elution profile
T1 construct: elution profile of PTP1B1-394 in the absence (circles) and presence (triangles) of DPM-1001; His-tag; made in house; host or cells: Escherichia coli BL21 (DE3)-RIL
T1 sequence (P18031 1-394): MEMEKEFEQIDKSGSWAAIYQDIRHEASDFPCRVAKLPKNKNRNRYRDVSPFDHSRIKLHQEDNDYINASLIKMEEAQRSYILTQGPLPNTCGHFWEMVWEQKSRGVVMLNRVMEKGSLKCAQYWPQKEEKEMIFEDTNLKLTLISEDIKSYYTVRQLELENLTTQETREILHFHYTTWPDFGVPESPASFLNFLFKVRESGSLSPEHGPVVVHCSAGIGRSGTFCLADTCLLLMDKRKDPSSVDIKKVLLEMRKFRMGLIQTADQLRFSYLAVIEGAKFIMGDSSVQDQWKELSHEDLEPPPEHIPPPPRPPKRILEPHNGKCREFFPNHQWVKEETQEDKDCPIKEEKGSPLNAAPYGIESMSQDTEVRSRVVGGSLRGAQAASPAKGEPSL
Protocol: PTP1B (5 μM) was incubated with 10 μM MSI1436 in a final volume of 200 μl buffer (50 mM HEPES, pH 7.0, 100 mM NaCl, 0.2 mM EDTA, 2 mM DTT) at 4° C. The reaction mixture was then subjected to gel filtration on a Superdex 200 column (HR30/10; Pharmacia Biotech Inc.). Prior to loading the MSI1436-saturated protein sample, the column was equilibrated with 50 mM HEPES, pH 7.0, 100 mM NaCl, 0.2 mM EDTA and 2 mM DTT. The void volume (Vo) and total volume (Vt) were measured using blue dextran and Coomassie blue dye, respectively. Fractions of 0.5 ml were collected, and the protein concentration in each sample was determined by Bradford assay or by recording the UV absorption spectrum at 280 nm.

SNU116 cells = assay: Cell survival; assay type: cell-based
Protocol: as §1

N87 = assay: Cell survival; assay type: cell-based
Protocol: as §1

MDA-MB-468 cells = assay: Cell survival; assay type: cell-based
Protocol: as §1

NIH 3T3 cells = assay: Cell survival; assay type: cell-based
Protocol: as §1

SNU1 = assay: Cell survival; assay type: cell-based
Protocol: as §1

AGS cells = assay: Cell survival; assay type: cell-based
Protocol: as §1

KATOIII cells = assay: Cell survival; assay type: cell-based
Protocol: as §1

SNU5 cells = assay: Cell survival; assay type: cell-based
Protocol: as §1

TNBC cells = assay: Annexin V and propidium iodide staining; assay type: cell-based
Protocol: Cells (1×10^5) were plated in six-well plates in growth medium. The cells were untreated or treated with DPM-1001 (2 μM). Following which, cells were washed with cold PBS twice and resuspended in 0.1 M Hepes/NaOH (pH 7.4), 1.4 M NaCl, 25 mM CaCl2). To the cell suspension 5 μl of fluorescein isothiocynate (FITC)-conjugated annexin V (0.1 mg/ml) and propidium iodide (1 mg/ml) were added and the samples were incubated in dark for 30 minutes at room temperature. The samples were analyzed by flow cytometry (Becton Dickinson LSRII Cell Analyzer).

SMILES: COC(=O)CCC(C)C1CCC2C3C(O)CC4CC(NCCCCNCc5ccccn5)CCC4(C)C3CCC12C (stereo not drawn) [DPM-1001]
- protection from copper-induced cell death [1]: prevents such cytotoxic effects; also recorded: inhibited copper-induced cell death
- survival of triple-negative breast cancer cells [2]: inhibited survival; also recorded: potently inhibits survival
- copper levels in feces (TX mice; TX mice): dramatically elevated
- rhodanine staining of liver (TX mice; TX mice): no obvious staining for rhodanine
- copper levels in liver and brain (TX mice; TX mice, ICP-MS): inhibits copper accumulation in liver and brain; also recorded: lowered the levels of copper in both tissues; also recorded: as effective as tetrathiomolybdate in removing copper from the liver and brain
- copper levels in feces (TX mice; TX mice, listed as DMP-1001): elevated copper levels in feces
- copper levels in kidney (TX mice; wild-type and TX mice, ICP-MS): does not promote accumulation of copper in the kidney; also recorded: no significant differences
- rhodanine staining of liver (TX mice; wild-type mice): No signal was detected
- aggregation of PTP1B (PTP1B1-394): did not induce aggregation
- survival of SNU116 cells (SNU116 cells): inhibited survival; also recorded: inhibitory effect
- survival of N87 cells (N87): inhibited survival; also recorded: inhibitory effect
- survival of MDA-MB-468 cells (MDA-MB-468 cells): inhibitory effect
- survival of NIH 3T3 cells (NIH 3T3 cells): no effect on survival
- survival of SNU1 cells (SNU1): inhibited survival
- survival of AGS cells (AGS cells): inhibited survival; also recorded: inhibitory effect
- survival of KATOIII cells (KATOIII cells): inhibited survival; also recorded: inhibitory effect
- survival of SNU5 cells (SNU5 cells): inhibited survival; also recorded: inhibitory effect
- mechanism of reduced cell survival (TNBC cells): due to promoting death of these cells
